50 molecules from patent US8541363B2, “Pyruvamide compounds as inhibitors of dust mite group 1 peptidase allergen and their use” (St George's Hosptial Medical School, priority 2010, dated 2013) can be followed below.

The target of this experiment is Der p 1 (Dermatophagoides pteronyssinus (European house dust mite), UniProt P08176). Description: Der p 1 enzyme activity assay (FRET fluorogenic substrate). In kind it is biochemical. Here is the method:
The fluorogenic substrate used for measuring Der p 1 proteolytic activity was 2-aminobenzoylvalylalanylnorleucylseryl-(3-nitro)tyrosinyl aspartamide.
Test compounds were dissolved in dry DMSO and maintained at 4° C. as stock solutions until being diluted for use in screening assays. Final concentration of DMSO in all enzymatic assays was 0.5% v/v.
Reaction mixtures were assembled in a 96-well plate format (Perkin Elmer Optiplate 96F, Perkin Elmer LAS, Seer Green, Buckinghamshire, UK) using a Perkin Elmer MultiPROBE II Plus HTS EX robot with Gripper attachment. […] Dithiothreitol (DTT, 10 μL/well, 1 mM final concentration) was then added together with 10 μL of Der p 1 dissolved at 2.5 μg/mL in reaction buffer supplemented with 1 mM DTT. […] The plate was immediately transferred to a fluorescence plate reader (Perkin Elmer Fusion Alpha-FP or Perkin Elmer Envision) equipped with a temperature-controlled carrier set at 30° C. and the reaction followed by excitation/emission at 330/420 nm.
Inhibitory activity was analysed from progress curves of reactions in the presence of a range of inhibitor concentrations.
Initial velocity in each well was converted to fractional activity by Equation 1: Fractional activity=(Initial rate at inhibitor concentration[X]/Initial rate at inhibitor concentration zero)*100 Equation 1:
Then, IC50 was determined by fitting the data of fractional activity and inhibitor concentration to a 4-parameter logistic curve, using Equation 2: V=Vmin+[Vmax−Vmin]/[1+(X/IC50)Hillslope] […] Biological Data—Der p 1 Enzyme Assay

Setting [1] is: threshold stated in text, read-out: Der p 1 IC50.

Molecules are shown by their SMILES. Read-outs that look alike come from different tables or passages of the source.

Sequence of Der p 1 (P08176 99-320): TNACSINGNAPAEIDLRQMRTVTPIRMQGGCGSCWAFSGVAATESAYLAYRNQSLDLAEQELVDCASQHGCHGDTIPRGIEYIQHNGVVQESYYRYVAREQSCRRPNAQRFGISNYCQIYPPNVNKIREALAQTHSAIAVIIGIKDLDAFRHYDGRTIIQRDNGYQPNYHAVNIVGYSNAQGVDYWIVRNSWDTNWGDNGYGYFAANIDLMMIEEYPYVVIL

For `CC(C)[C@H](NC(=O)[C@H](C)NC(=O)C1CCCN1C(=O)c1ccccc1)C(=O)C(=O)NCC(=O)N1CCN(C)CC1` (some centres unmarked) [PVA-140], the IC50 under setting [1] is less than 2000 nM. As to `CC(C)[C@H](NC(=O)[C@H](C)NC(=O)[C@@H](NC(=O)c1cccc2ccccc12)C(C)(C)C)C(=O)C(=O)NCc1ccc(S(N)(=O)=O)cc1` [PVA-215], under setting [1], the IC50 was less than 20 nM. On the same count and under the same terms, the result for `CC(=O)Nc1ccc(C(=O)N[C@H](C(=O)N[C@@H](C)C(=O)N[C@H](C(=O)C(=O)NC2CCCCC2)C(C)C)C(C)(C)C)cn1` [PVA-061] reads less than 200 nM; that for `CC(C)[C@H](NC(=O)[C@H](C)NC(=O)[C@@H](NC(=O)c1cccc2[nH]ncc12)C(C)(C)C)C(=O)C(=O)NCc1ccccc1` [PVA-149], less than 20 nM; that for `CC(C)[C@H](NC(=O)[C@H](C)NC(=O)[C@H](NC(=O)c1ccccc1)C1Cc2ccccc2C1)C(=O)C(=O)NC1CCCCC1` [PVA-029], less than 2000 nM.

`CC(C)[C@H](NC(=O)[C@H](C)NC(=O)[C@@H](NC(=O)c1ccnc(N2CCOCC2)c1)C(C)(C)C)C(=O)C(=O)NCc1ccccc1` [PVA-048]: the IC50 under setting [1] is less than 200 nM. In the case of `CC(C)[C@H](NC(=O)[C@H](C)NC(=O)[C@@H](NC(=O)c1ccc2ncsc2c1)C(C)(C)C)C(=O)C(=O)NC1CCCCC1` [PVA-053], under setting [1], the IC50 is less than 200 nM. Consider `CC(C)[C@H](NC(=O)[C@H](C)NC(=O)[C@H](Cc1ccccc1)NC(=O)c1ccccc1)C(=O)C(=O)NCC(=O)N1CCC(N(C)C)CC1` [PVA-093], for which the IC50 under setting [1] is less than 20 nM. As for `CC(C)[C@H](NC(=O)[C@H](C)NC(=O)[C@H](Cc1ccccc1)NC(=O)c1ccc2ncsc2c1)C(=O)C(=O)NCc1ccccc1` [PVA-051], under setting [1], the IC50 was less than 200 nM.

Consider `CC(C)[C@H](NC(=O)[C@H](C)NC(=O)[C@H](Cc1ccccc1)NC(=O)c1ccncc1)C(=O)C(=O)NCc1ccccc1` [PVA-099], for which the IC50 under setting [1] is less than 20 nM. As to `CC(C)[C@H](NC(=O)[C@H](C)NC(=O)[C@@H](NC(=O)c1ccccc1)C(C)(C)C)C(=O)C(=O)NCc1ccc(Cl)cc1` [PVA-179], the IC50 under setting [1] was less than 200 nM. Same read-out and setting: the result for `CC(C)[C@H](NC(=O)[C@H](C)NC(=O)C(C)(C)NC(=O)c1ccccc1)C(=O)C(=O)NC1CCCCC1` [PVA-090] reads less than 2000 nM; that for `CC(C)[C@H](NC(=O)[C@H](C)NC(=O)[C@@H](NC(=O)c1ccc(N2CCOCC2)nc1)C(C)(C)C)C(=O)C(=O)NC1CCCCC1` [PVA-049], less than 200 nM.

For the molecule `CC(C)[C@H](NC(=O)[C@H](C)NC(=O)[C@@H](NC(=O)c1cccc2ccccc12)C(C)(C)C)C(=O)C(=O)NC1CCCCC1` [PVA-052], under setting [1], the IC50 is less than 200 nM. On to `CC(C)[C@H](NC(=O)[C@H](C)NC(=O)[C@@H](NC(=O)c1ccnc2ccccc12)C(C)(C)C)C(=O)C(=O)NCc1ccc(S(N)(=O)=O)cc1` [PVA-185], for which the IC50 under setting [1] was less than 20 nM. On the same count and under the same terms, the result for `CC(C)[C@H](NC(=O)[C@H](C)NC(=O)[C@H](Cc1ccccc1)NC(=O)c1ccc2ncsc2c1)C(=O)C(=O)NC1CCCCC1` [PVA-050] reads less than 200 nM. On to `CC(C)[C@H](NC(=O)[C@H](C)NC(=O)[C@@H](NC(=O)c1ccccc1)C(C)(C)C)C(=O)C(N)=O` [PVA-118], for which the IC50 under setting [1] was less than 20 nM.

In turn, `CC(C)[C@@H](NC(=O)[C@H](C)NC(=O)[C@@H](NC(=O)c1ccncc1)C(C)(C)C)C(=O)C(=O)NC1CCCCC1` [PVA-086] gave an IC50 (Der p 1 IC50) of less than 200 nM.

`CC(C)[C@H](NC(=O)[C@H](C)NC(=O)[C@H](Cc1ccccc1)NC(=O)c1ccccc1)C(=O)C(=O)N[C@@H](C)c1ccccc1` [PVA-016]: the IC50 under setting [1] is less than 2000 nM. Still for that read-out and setting: the result for `CC(C)[C@H](NC(=O)[C@H](C)NC(=O)[C@H](Cc1ccccc1)NC(=O)c1ccncc1)C(=O)C(=O)NCC1CCN(C)CC1` [PVA-170] reads less than 200 nM.

For `CC(C)[C@H](NC(=O)[C@H](C)NC(=O)[C@@H](NC(=O)c1ccccc1)C(C)(C)C)C(=O)C(=O)N[C@H](C)c1ccccc1` [PVA-132], under setting [1], the 50% inhibitory concentration (IC50) is less than 20 nM. Still for that read-out and setting: the result for `CNC(=O)c1ccc(CNC(=O)C(=O)[C@@H](NC(=O)[C@H](C)NC(=O)[C@@H](NC(=O)c2ccccc2)C(C)(C)C)C(C)C)cc1` [PVA-196] reads less than 20 nM; that for `CNC(=O)C(=O)[C@@H](NC(=O)[C@H](C)NC(=O)[C@@H](NC(=O)c1ccccc1)C(C)(C)C)C(C)C` [PVA-117], less than 200 nM; that for `CC(C)[C@H](NC(=O)[C@H](C)NC(=O)[C@@H](Cc1ccccc1)NC(=O)c1ccncc1)C(=O)C(=O)NCc1ccccc1` [PVA-035], less than 20 nM. The same measure, in the same setting: the result for `COc1ccc(CNC(=O)C(=O)[C@@H](NC(=O)[C@H](C)NC(=O)[C@@H](NC(=O)c2ccccc2)C(C)(C)C)C(C)C)cc1` [PVA-204] reads less than 20 nM.

In the case of `CC(C)[C@H](NC(=O)[C@H](C)NC(=O)[C@@H](NC(=O)c1ccccc1)C(C)(C)C)C(=O)C(=O)N[C@H](C)C(=O)N1CCN(C)CC1` [PVA-125], under setting [1], the IC50 is less than 200 nM. The same measure, in the same setting: the figure for `CC(C)[C@H](NC(=O)[C@H](C)NC(=O)[C@@H](NC(=O)c1ccnc2ccccc12)C(C)(C)C)C(=O)C(=O)NCc1ccc(C(N)=O)cc1` [PVA-188] is less than 20 nM; for `CC(C)[C@H](NC(=O)[C@H](C)NC(=O)[C@@H](NC(=O)c1ccnc2ccccc12)C(C)(C)C)C(=O)C(=O)NC1CCCCC1` [PVA-071] it is less than 20 nM; for `CC(C)[C@H](NC(=O)[C@H](C)NC(=O)[C@H](Cc1ccccc1)NC(=O)c1ccc(N2CCOCC2)nc1)C(=O)C(=O)NCc1ccccc1` [PVA-070] it is less than 2000 nM. Still for that read-out and setting: the result for `CC(C)[C@H](NC(=O)[C@H](C)NC(=O)[C@@H](N1Cc2ccccc2C1=O)C(C)(C)C)C(=O)C(=O)NCc1ccccc1` [PVA-129] reads less than 20 nM; that for `CC(C)[C@H](NC(=O)[C@H](C)NC(=O)[C@H](Cc1ccccc1)NC(=O)c1ccccc1)C(=O)C(=O)NCCc1ccccc1` [PVA-010], less than 200 nM. As for `CC(C)[C@H](NC(=O)[C@H](C)NC(=O)[C@@H](N1Cc2ccccc2C1=O)C(C)(C)C)C(=O)C(=O)NCc1ccc(N2CCN(C)CC2)cc1` [PVA-211], the IC50 under setting [1] is less than 20 nM.

Turning to `Cc1ccc(CNC(=O)C(=O)[C@@H](NC(=O)[C@H](C)NC(=O)[C@@H](NC(=O)c2ccccc2)C(C)(C)C)C(C)C)cc1` [PVA-205], the half-inhibitory concentration (IC50) under setting [1] is less than 20 nM. Same read-out and setting: the figure for `C[C@H](NC(=O)[C@H](Cc1ccccc1)NC(=O)c1ccccc1)C(=O)NCC(=O)C(=O)NCc1ccccc1` [PVA-102] is less than 200 nM; for `CC(C)[C@H](NC(=O)[C@H](C)NC(=O)[C@@H](NC(=O)c1ccccc1)C(C)(C)C)C(=O)C(=O)NCC(=O)N1CCc2ccccc21` [PVA-112] it is less than 20 nM; for `Cc1cc(CNC(=O)C(=O)[C@@H](NC(=O)[C@H](C)NC(=O)[C@@H](NC(=O)c2ccccc2)C(C)(C)C)C(C)C)n(C)n1` [PVA-168] it is less than 200 nM. For `CC(C)[C@H](NC(=O)[C@H](C)NC(=O)[C@@H](Cc1ccccc1)NC(=O)c1cccc(Oc2ccccc2)c1)C(=O)C(=O)NC1CCCCC1` [PVA-021], the IC50 under setting [1] was less than 2000 nM. Take `CC(C)[C@H](NC(=O)[C@H](C)NC(=O)[C@@H](NC(=O)C1CCN(C(C)C)CC1)C(C)(C)C)C(=O)C(=O)NCc1ccccc1` [PVA-172]: the IC50 under setting [1] is less than 200 nM.

Consider `CC(C)[C@H](NC(=O)[C@H](C)NC(=O)[C@@H](NC(=O)c1ccccc1Oc1ccccc1)C(C)(C)C)C(=O)C(=O)NCc1ccccc1` [PVA-106], for which the IC50 under setting [1] was less than 200 nM. Still for that read-out and setting: the result for `CCCC[C@H](NC(=O)[C@H](C)NC(=O)[C@@H](Cc1ccccc1)NC(=O)c1ccc(N2CCN(C)CC2)cc1)C(=O)C(=O)NC1CCCCC1` [PVA-043] reads less than 2000 nM. With `CC(C)[C@H](NC(=O)[C@H](C)NC(=O)[C@@H](NC(=O)c1ccccc1)C(C)(C)C)C(=O)C(=O)NCc1ccnn1C` [PVA-167], the IC50 under setting [1] is less than 200 nM. On the same count and under the same terms, the result for `CC(C)C(NC(=O)[C@H](C)NC(=O)[C@H](Cc1ccccc1)NC(=O)c1ccccc1)C(=O)C(=O)NCCN1CCCC1` (some centres unmarked) [PVA-025] reads less than 2000 nM. `CC(C)[C@H](NC(=O)[C@H](C)NC(=O)[C@@H](NC(=O)c1ccccc1)C(C)(C)C)C(=O)C(=O)NCC(=O)N1CCN(C)CC1` [PVA-055] displayed an IC50 (Der p 1 IC50) of less than 20 nM.

Take `C[C@H](NC(=O)[C@H](Cc1ccccc1)NC(=O)c1ccccc1)C(=O)NCC(=O)C(=O)N1CCC(N(C)C)CC1` [PVA-018]: the IC50 under setting [1] is less than 2000 nM.

On to `CC(C)[C@H](NC(=O)[C@H](C)NC(=O)[C@@H](NC(=O)c1ccccc1)C(C)(C)C)C(=O)C(=O)N[C@H](C(=O)N1CCN(C)CC1)C(C)C` [PVA-127], for which, under setting [1], the IC50 was less than 200 nM. Turning to `CC(C)[C@H](NC(=O)[C@H](C)NC(=O)[C@@H](N1Cc2ccccc2C1=O)C(C)(C)C)C(=O)C(=O)NC1CC1` [PVA-177], the IC50 under setting [1] is less than 20 nM.

On to `CC(C)[C@H](NC(=O)[C@H](C)NC(=O)[C@@H](NC(=O)c1ccccc1)C(C)(C)C)C(=O)C(=O)NCc1cccc(Cl)c1` [PVA-191], for which the IC50 under setting [1] is less than 200 nM. On the same count and under the same terms, the result for `CC(C)[C@H](NC(=O)[C@H](C)NC(=O)[C@H](Cc1ccccc1)NC(=O)c1ccncc1)C(=O)C(=O)NCc1cccc(C(N)=O)c1` [PVA-169] reads less than 20 nM; that for `CNS(=O)(=O)c1ccc(CNC(=O)C(=O)[C@@H](NC(=O)[C@H](C)NC(=O)[C@@H](NC(=O)c2ccccc2)C(C)(C)C)C(C)C)cc1` [PVA-197], less than 20 nM.

For the molecule `CC(C)[C@H](NC(=O)[C@H](C)NC(=O)[C@@H](NC(=O)c1ccc(Cl)cc1)C(C)(C)C)C(=O)C(=O)NCc1ccccc1` [PVA-184], the IC50 under setting [1] is less than 200 nM.

For orientation: IC50 means the point on the concentration scale where inhibition reaches its midpoint.
